One data set has as its system TPTX rats. Kind of data set: Repeated administration study in TPTX rats, study 2 (add-on to alfacalcidol). Type of data set: in vivo, rat. As to conditions: alone at 75 ng kg^−1 once-daily oral, 4 weeks. The method, then:
TPTX was carried out in 6-week-old female Crl:CD (SD) rats (Charles River Laboratories). Rats with serum Ca levels of <8.0 mg dl^−1 at 5 days after surgery were used in the following experiments. The rats were divided into four groups both in study 1 and 2, each with a similar mean value of serum Ca levels and body weight. Sample sizes were determined as described in the above single administration study. To evaluate the calcemic effects of PCO371 and hPTHs, we defined a target therapeutic range for serum Ca of 7.6–11.2 mg dl^−1, which corresponds to the low normal to normal range of serum Ca levels.
TPTX rats were orally treated once daily (vehicle; alfacalcidol (Chugai Pharma Manufacturing) at 38 or 75 ng kg^−1; or alfacalcidol at 38 ng kg^−1 plus PCO371 at 6 mg kg^−1) for 4 weeks. Five or six TPTX rats were assigned to each dose group. The vehicle for alfacalcidol was medium-chain triglyceride (Chugai Pharma Manufacturing). Under isoflurane anaesthesia, jugular vein blood was collected immediately before and at 6 and 10 h after administration to measure serum Ca levels on day 1 (the first dosing day), 8, 14, 22 and 28. Urine was collected for 24 h by using metabolic cages on days 28 and 29. Serum and urine Ca levels were measured in the same way as in the single-dosing study.

The nature of a further data set: in vivo. As to conditions: female, Crl:CD(SD), rat, sc.
For data set [1] the following is noted: human; ref Calcifi Tissue Int 2010 87:485, J Bone Miner Res 2013 28:2232, J Pharmcol Exp Ther 2009 330:169; cited from earlier work.
Data set [2] is described as follows: Pharmacokinetics in normal rats.
Method: (§2) PCO371 was administered at a dose of 2, 6 or 18 mg kg^−1 orally to 7-week-old normal female rats (RccHan: WIST, JLA; three rats for each dose group), or at a dose of 2, 6 or 18 mg kg^−1 orally to 7-week-old female TPTX rats [Crl:CD(SD), Charles River Laboratories; three TPTX rats for each dose group] or at 30 mg kg^−1 orally or 3, 10 mg kg^−1 intravenously to 55-week-old OVX rats as described above. Blood samples were collected at 15 and 30 min, and 1, 2, 4, 8 and 24 h after administration. […] The concentrations of plasma PCO371 were determined by liquid chromatography–tandem mass spectrometry [LC-MS/MS (API-3200 (AB SCIEX), detection limit: 1 ng ml^−1).
In another data set the test system is OVX rats. Kind of data set: Repeated administration study in OVX rats. Particulars: day 84, all treated rats. In kind it is in vivo, rat. The method, then: OVX was carried out in 32-week-old female Crl:CD (SD) rats (Charles River Laboratories). Twelve weeks after surgery, lumbar vertebral BMD (L3–L5) was measured in vivo by dual-energy X-ray absorptiometry (DXA) using a DCS-600EX-IIIR bone densitometer (Hitachi Aloka Medical), and the rats were divided into five groups, each with a similar mean value of BMD and body weight. Sample sizes were determined based on previous experiments with hPTHs and a published study with ibandronate and eldecalcitriol in our laboratories[42] (n=7–10). Then, OVX rats were treated once daily intravenously (vehicle or PCO371 at 3 or 10 mg kg^−1) or orally (vehicle or PCO371 at 30 mg kg^−1) or subcutaneously [vehicle or hPTH(1–34) at 0.9 nmol kg^−1] for 12 weeks. Ten to twelve OVX rats were assigned to each dose group. Nine rats were assigned to the sham-operated control group and were treated with vehicle for PCO371. Ten per cent DMSO (Wako Pure Chemical Industries)/10% Kolliphor EL (Sigma-Aldrich) in 10% hydroxypropyl-β-cyclodextrin (HPCD; Nihon Shokuhin Kako)/0.752% glycine (Wako Pure Chemical Industries) buffer was used as vehicle for PCO371, and phosphate-citrate buffer (pH 6.0) was used as vehicle for hPTH(1–34). To label bone-forming surfaces, tetracycline ([…], Nippon Zenyaku Kogyo) was subcutaneously injected on Day 78 and calcein (8 mg kg^−1, Dōjindo Laboratories) was subcutaneously injected on day 83. Under isoflurane anaesthesia, jugular vein blood was collected immediately before and at 1, 2, 6, 10 and 24 h after administration on day 82 to measure plasma concentration of PCO371 or on day 84 to measure serum Ca levels (o-CPC method, Wako Pure Chemical Industries). Urine was collected for 24 h from metabolic cages on days 84–85 to measure urinary collagen type 1 cross-linked C-telopeptide (CTX) by using the RatLaps ELISA System (Immunodiagnostic Systems). Under isoflurane anaesthesia, blood was collected on day 85 from the abdominal aorta to measure serum osteocalcin level by using the Rat Osteocalcin ELISA System (GE Healthcare). The lumbar spine and bilateral femurs were excised after 12 weeks of treatment. The first lumbar vertebra (L1), 3rd to 5th lumbar vertebrae (L3–L5), the right femur, and the right tibia were preserved in 70% ethanol to measure bone histomorphometry and BMD (DCS-600EX; Hitachi Aloka Medical). Measurement of bone histomorphometry was performed by the Ito Bone Histomorphometry Institute (Niigata, Japan). The second lumbar vertebra (L2) was wrapped in saline-soaked gauze and stored at −80 °C until measurement. Ultimate compressive strength (N) of the L2 vertebra was measured by using a mechanical testing machine (TK-252C; Muromachi Kikai).

For a further data set, the target named is T1, rat PTHR2 (Rattus norvegicus, UniProt P70555).
T1 construct: expressed in transfected cells; host or cells: COS-7 (transient)
T1 sequence (P70555 25-546): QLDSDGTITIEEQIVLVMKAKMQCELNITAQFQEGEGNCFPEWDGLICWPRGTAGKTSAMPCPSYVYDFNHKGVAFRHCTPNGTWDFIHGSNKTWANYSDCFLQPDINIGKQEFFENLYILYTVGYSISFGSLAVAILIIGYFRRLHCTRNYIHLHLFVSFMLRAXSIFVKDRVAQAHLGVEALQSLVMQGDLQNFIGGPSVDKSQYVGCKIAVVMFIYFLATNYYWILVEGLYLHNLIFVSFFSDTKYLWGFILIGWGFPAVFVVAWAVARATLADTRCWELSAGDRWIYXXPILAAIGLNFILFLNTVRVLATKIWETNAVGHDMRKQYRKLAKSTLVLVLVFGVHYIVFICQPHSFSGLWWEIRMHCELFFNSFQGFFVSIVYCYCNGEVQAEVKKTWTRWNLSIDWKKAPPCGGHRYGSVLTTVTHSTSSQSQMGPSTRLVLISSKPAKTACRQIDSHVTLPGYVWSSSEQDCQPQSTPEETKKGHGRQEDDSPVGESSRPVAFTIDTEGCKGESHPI
Kind of data set: cAMP production assay in COS-7 cells expressing rat PTHR2. In kind it is cell-based. The method, then: (§1) COS-7 cells (ATCC) were seeded into a 96-well flat-bottomed plate (1.4 × 10^4 cells per 100 μl per well) and incubated overnight. The next day, the COS-7 cells were transfected by adding 10 μl of a mixture of hPTHR1, hPTHR2 or mutant hPTHR1 plasmid, rat PTHR1 or rat PTHR2 plasmid, or empty vector (0.1 μg per well), FuGENE HD Transfection Reagent (0.4 μl per well, Promega), and Opti-MEM I Reduced Serum Medium (10 μl per well, Life Technologies) to each well. […] The plate was placed in a 37 °C constant-temperature water bath for 20 min to allow the reaction to proceed. After incubation, the liquid in the wells was discarded, the wells were washed with the assay medium (100 μl per well), and the plate was frozen on dry ice. Next, 40 μl of 50 mmol l^−1 HCl was added to each well, and the plate was stored in a freezer set at ≤−20 °C. The cAMP concentrations were measured by using a cAMP EIA kit (GE Healthcare). EC50 values were determined from three independent experiments in duplicate by a non-linear regression Emax model (JMP ver.9.0.2, SAS Institute). The geometric mean of the EC50 values obtained in three experiments in duplicate was calculated using Microsoft Office Excel 2007. […]
For orientation: Changes in cAMP serve as a functional read-out for many G protein-coupled receptors.

For another data set, the target named is T2, hPTHR2 (Homo sapiens, UniProt P49190).
T2 construct: expressed in transfected cells; host or cells: COS-7 (transient)
T2 sequence (P49190 25-550): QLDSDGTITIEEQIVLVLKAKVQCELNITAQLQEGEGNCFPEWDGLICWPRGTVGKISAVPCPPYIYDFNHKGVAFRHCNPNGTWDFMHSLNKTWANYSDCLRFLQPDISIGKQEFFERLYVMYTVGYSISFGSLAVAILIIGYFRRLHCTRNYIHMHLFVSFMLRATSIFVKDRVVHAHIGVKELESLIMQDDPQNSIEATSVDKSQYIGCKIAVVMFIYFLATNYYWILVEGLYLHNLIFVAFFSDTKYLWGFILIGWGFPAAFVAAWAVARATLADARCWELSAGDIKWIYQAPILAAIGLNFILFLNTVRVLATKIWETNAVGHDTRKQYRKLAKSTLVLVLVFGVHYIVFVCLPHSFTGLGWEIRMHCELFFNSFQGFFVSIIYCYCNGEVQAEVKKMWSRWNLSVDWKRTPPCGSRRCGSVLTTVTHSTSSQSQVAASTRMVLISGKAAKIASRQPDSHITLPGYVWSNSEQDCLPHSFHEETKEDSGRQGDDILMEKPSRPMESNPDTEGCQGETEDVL
The data set is described as follows: cAMP production assay in COS-7 cells expressing hPTHR2. In kind it is cell-based. Particulars: COS-7 cells expressing human PTHR2. The method, then: as §1

Where [3] appears, read: female, Crl:CD(SD), rat, plasma, sc, 3 nmol/kg.

Like-named read-outs stand apart in the source and are kept apart here.

In general, half-life refers to the time needed for the level to fall by half in the phase considered. A low value points to rapid decline. Broadly, the Tmax is the time from dosing to the highest level. A word on the AUC(0-inf): it is total exposure, with the tail of the curve extrapolated. Read a low AUC(0-inf) as less exposure. What is called Cmax is the maximum level reached in the sampled fluid or tissue. As usually defined, the bioavailability is the share of a dose that reaches the circulation, judged against a reference dose that is usually intravenous.

Method for in vivo: as §2

Turning to `C=C1/C(=C\C=C2/CCC[C@]3(C)[C@@H]([C@H](C)CCCC(C)C)CC[C@@H]23)C[C@@H](O)C[C@@H]1O` [Alfacalcidol, 1α-hydroxycholecalciferol, reference compound], in the data set with TPTX rats, the “serum Ca” value is reported as “normalized the serum Ca to within or above the target therapeutic range” and the “urinary Ca excretion” value is reported as “considerable urinary Ca excretion”.
Regarding `CC[C@H](C)[C@H](NC(=O)[C@H](CCC(=O)O)NC(=O)[C@H](CO)NC(=O)[C@@H](NC(=O)[C@@H](N)CO)C(C)C)C(=O)N[C@@H](CCC(N)=O)C(=O)N[C@@H](CC(C)C)C(=O)N[C@@H](CCSC)C(=O)N[C@@H](Cc1cnc[nH]1)C(=O)N[C@@H](CC(N)=O)C(=O)N[C@@H](CC(C)C)C(=O)NCC(=O)N[C@@H](CCCCN)C(=O)N[C@@H](Cc1cnc[nH]1)C(=O)N[C@@H](CC(C)C)C(=O)N[C@@H](CC(N)=O)C(=O)N[C@@H](CO)C(=O)N[C@@H](CCSC)C(=O)N[C@@H](CCC(=O)O)C(=O)N[C@@H](CCCN=C(N)N)C(=O)N[C@H](C(=O)N[C@@H](CCC(=O)O)C(=O)N[C@@H](Cc1c[nH]c2ccccc12)C(=O)N[C@@H](CC(C)C)C(=O)N[C@@H](CCCN=C(N)N)C(=O)N[C@@H](CCCCN)C(=O)N[C@@H](CCCCN)C(=O)N[C@@H](CC(C)C)C(=O)N[C@@H](CCC(N)=O)C(=O)N[C@@H](CC(=O)O)C(=O)N[C@H](C(=O)N[C@@H](Cc1cnc[nH]1)C(=O)N[C@@H](CC(N)=O)C(=O)N[C@@H](Cc1ccccc1)C(=O)O)C(C)C)C(C)C` [hPTH(1–34), reference compound], the half-life in “in vivo” was 15 min; in “in vivo” (3 nmol/kg), 18 ± 6 min. In addition, the Tmax is 30 min in data set [1], 6 ± 6 min in data set [2] (setting [3]) and 5 min in data set [2] (rat (Table 1)). The compound further had an AUC(0-inf) in data set [2] (setting [3]) of 0.99 ± 0.17 ng·h/mL. Further, the Cmax in data set [2] (setting [3]) was 2.42 ± 0.53 ng/mL; in data set [2] (rat, plasma, sc, 0.9 nmol/kg) it was around 0.125 ng/mL. In data set [2] (setting [3]), this compound displayed a bioavailability of 22%. The “serum Ca” value in the data set with OVX rats is “within the normal range”.
Take “TIP39: tuberoinfundibular peptide of 39 residues, the cognate ligand for PTHR2 [reference compound]”: the cAMP production result in the data set with rat PTHR2 and with hPTHR2 was “showed an increase in cAMP production” in each case.

These data come from publication PMC5120204, “Identification of an orally active small-molecule PTHR1 agonist for the treatment of hypoparathyroidism” (Nature Communications, 2016).
